ChEMBL document CHEMBL2417425, “Design and synthesis of positional isomers of 5 and 6-bromo-1-[(phenyl)sulfonyl]-2-[(4-nitrophenoxy)methyl]-1H-benzimidazoles as possible antimicrobial and antitubercular agents” (2013)
In brackets after ≈: the same amount, converted by molar mass.

system: Mycobacterium tuberculosis; test: Antimycobacterial activity against multidrug-resistant Mycobacterium tuberculosis assessed as growth inhibition at 0.3125 to 5 ug/mL by resazurin assay; assay type: functional

Q: `N#Cc1cccc(S(=O)(=O)n2c(COc3ccc([N+](=O)[O-])cc3)nc3cc(Br)ccc32)c1` was tested. Which MIC did it give?
A: > 50 µg/mL

Q: With `Cc1c(F)cccc1S(=O)(=O)n1c(COc2ccc([N+](=O)[O-])cc2)nc2cc(Br)ccc21` as the molecule, how does the MIC read?
A: > 50 µg/mL

Q: Which MIC does the source give for `O=[N+]([O-])c1ccc(OCc2nc3cc(Br)ccc3n2S(=O)(=O)c2ccccc2Cl)cc1` here?
A: 6.25 µg/mL (≈ 12 µM)

Q: For `COc1ccc(S(=O)(=O)n2c(COc3ccc([N+](=O)[O-])cc3)nc3cc(Br)ccc32)c(OC)c1`, which MIC is on record?
A: > 50 µg/mL

Q: With `Cc1cccc(S(=O)(=O)n2c(COc3ccc([N+](=O)[O-])cc3)nc3cc(Br)ccc32)c1` as the molecule, how does the MIC read?
A: > 50 µg/mL

Q: How did the MIC turn out when `COc1ccc(OC)c(S(=O)(=O)n2c(COc3ccc([N+](=O)[O-])cc3)nc3ccc(Br)cc32)c1` was run?
A: 25 µg/mL (≈ 45.6 µM)

Q: For `O=[N+]([O-])c1ccc(OCc2nc3ccc(Br)cc3n2S(=O)(=O)c2cc(F)ccc2F)cc1`, which MIC is on record?
A: > 50 µg/mL

Q: For `O=[N+]([O-])c1ccc(OCc2nc3ccc(Br)cc3n2S(=O)(=O)c2cc(Cl)ccc2Cl)cc1`, which MIC is on record?
A: > 50 µg/mL

Q: Which MIC does the source give for `O=[N+]([O-])c1ccc(OCc2nc3ccc(Br)cc3n2S(=O)(=O)c2ccccc2[N+](=O)[O-])cc1` here?
A: > 50 µg/mL

Q: For `N#Cc1cccc(S(=O)(=O)n2c(COc3ccc([N+](=O)[O-])cc3)nc3ccc(Br)cc32)c1`, which MIC is on record?
A: > 50 µg/mL

Q: Which MIC does the source give for `Cc1c(F)cccc1S(=O)(=O)n1c(COc2ccc([N+](=O)[O-])cc2)nc2ccc(Br)cc21` here?
A: > 50 µg/mL

Q: How did the MIC turn out when `COc1ccc(S(=O)(=O)n2c(COc3ccc([N+](=O)[O-])cc3)nc3ccc(Br)cc32)c(OC)c1` was run?
A: 2.5 µg/mL (≈ 4.56 µM)

Q: Which MIC does the source give for `Cc1cccc(S(=O)(=O)n2c(COc3ccc([N+](=O)[O-])cc3)nc3ccc(Br)cc32)c1` here?
A: > 50 µg/mL

Q: With `Nc1ccc(OCc2nc3cc(Br)ccc3[nH]2)cc1` as the molecule, how does the MIC read?
A: 25 µg/mL (≈ 78.6 µM)

Q: For `COc1ccc(OC)c(S(=O)(=O)n2c(COc3ccc([N+](=O)[O-])cc3)nc3cc(Br)ccc32)c1`, which MIC is on record?
A: > 50 µg/mL

Q: `O=[N+]([O-])c1ccc(OCc2nc3cc(Br)ccc3n2S(=O)(=O)c2cc(F)ccc2F)cc1` was tested. Which MIC did it give?
A: 6.25 µg/mL (≈ 11.9 µM)

Q: Which MIC does the source give for `O=[N+]([O-])c1ccc(OCc2nc3cc(Br)ccc3n2S(=O)(=O)c2ccc(Cl)cc2Cl)cc1` here?
A: > 50 µg/mL

Q: `O=[N+]([O-])c1ccc(OCc2nc3cc(Br)ccc3n2S(=O)(=O)c2cc(Cl)ccc2Cl)cc1` was tested. Which MIC did it give?
A: > 50 µg/mL

Q: With `O=[N+]([O-])c1ccc(OCc2nc3cc(Br)ccc3n2S(=O)(=O)c2ccccc2[N+](=O)[O-])cc1` as the molecule, how does the MIC read?
A: 6.25 µg/mL (≈ 11.7 µM)

Q: `NNC(=O)c1ccncc1` [ISONIAZID] was tested. Which MIC did it give?
A: 12.5 µg/mL (≈ 91.1 µM)

Q: How did the MIC turn out when `CO[C@H]1/C=C/O[C@@]2(C)Oc3c(C)c(O)c4c(O)c(c(/C=N/N5CCN(C)CC5)c(O)c4c3C2=O)NC(=O)/C(C)=C\C=C\[C@H](C)[C@H](O)[C@@H](C)[C@@H](O)[C@@H](C)[C@H](OC(C)=O)[C@@H]1C` [RIFAMPIN] was run?
A: 25 µg/mL (≈ 30.4 µM)
